*1 amine or outer side, *2 acyl side, *3 side chain or, on linkers, in order; H or OH if unused. Where a SMILES comes first, the peptide text is derived from it. Bridges are numbered along the chain shown (N, C = ends). [ ]: non-standard residue; d: D form. The star is where a group is joined. X24 = O=C([C@H](Cc1ccc(C(F)(F)F)cc1)N(CCC(F)(F)F)[*:1])[*:2]; X6 = CC(C)(C)CCN([C@@H](Cc1ccc(C(F)(F)F)cc1)C(=O)[*:2])[*:1]; X21 = O=C([C@H](Cc1ccc(C(F)(F)F)cc1)N(CC1CCCC1)[*:1])[*:2]; X36 = CC(C)CCN([C@@H](Cc1ccc(C(F)(F)F)cc1)C(=O)[*:2])[*:1]; hPhe(3-Cl-4-CF3) = N[C@@H](CCc1ccc(C(F)(F)F)c(Cl)c1)C(=O)O; X23 = CC(C)CN([C@@H](Cc1ccc(C(F)(F)F)cc1)C(=O)[*:2])[*:1]; X37 = O=C([C@H](Cc1ccc(C(F)(F)F)cc1)N(CC1CCC1)[*:1])[*:2]; X18 = C=CCCN([C@@H](Cc1ccc(C(F)(F)F)cc1)C(=O)[*:2])[*:1]; X31 = O=C([C@H](Cc1ccc(C(F)(F)F)cc1)N(CC1CC1)[*:1])[*:2]; X42 = COCCCN([C@@H](Cc1ccc(C(F)(F)F)cc1)C(=O)[*:2])[*:1]; X11 = C=CCN([C@@H](Cc1ccc(C(F)(F)F)cc1)C(=O)[*:2])[*:1]; X17 = CCCCN([C@@H](Cc1ccc(C(F)(F)F)cc1)C(=O)[*:2])[*:1]; X28 = C#CCN([C@@H](Cc1ccc(C(F)(F)F)cc1)C(=O)[*:2])[*:1]; X32 = COCCN([C@@H](Cc1ccc(C(F)(F)F)cc1)C(=O)[*:2])[*:1]; NMeGly(cPent) = CN[C@H](C(=O)O)C1CCCC1; NMeD = CN[C@@H](CC(=O)O)C(=O)O; NMeL = CN[C@@H](CC(C)C)C(=O)O; Morpholide = C1CN(*)CCO1; NMeA = CN[C@@H](C)C(=O)O; Ac5c = NC1(C(=O)O)CCCC1; Aze = O=C(O)[C@@H]1CCN1; Sar = CNCC(=O)O
Experiments:
[1] = biological target: GDP-bound NRAS wild-type protein (Homo sapiens, UniProt P01111); test: Binding to NRAS by surface plasmon resonance (SPR), Single Cycle Kinetics; details: KD ratio NRAS/KRAS, SPR
[2] = biological target: GDP-bound HRAS wild-type protein (Homo sapiens, UniProt P01112); test: Binding to HRAS by surface plasmon resonance (SPR), Single Cycle Kinetics; details: KD ratio HRAS/KRAS, SPR
GDP-bound HRAS wild-type protein, sequence (P01112 whole entry): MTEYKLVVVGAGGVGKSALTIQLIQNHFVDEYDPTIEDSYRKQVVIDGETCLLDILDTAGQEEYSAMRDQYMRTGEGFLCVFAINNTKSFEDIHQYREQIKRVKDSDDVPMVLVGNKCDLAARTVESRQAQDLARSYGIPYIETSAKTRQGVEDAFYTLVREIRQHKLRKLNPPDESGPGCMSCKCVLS

GDP-bound NRAS wild-type protein, sequence (P01111 whole entry): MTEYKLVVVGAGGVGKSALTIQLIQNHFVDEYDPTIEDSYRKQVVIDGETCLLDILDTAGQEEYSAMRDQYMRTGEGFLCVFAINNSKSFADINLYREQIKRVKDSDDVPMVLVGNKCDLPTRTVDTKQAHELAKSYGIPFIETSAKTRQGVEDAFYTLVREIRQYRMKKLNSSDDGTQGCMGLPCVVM

Row | SMILES | NRAS/KRAS (ratio of KD for GDP-bound NRAS wild-type to KD for KRAS) [1] | HRAS/KRAS (ratio of KD for GDP-bound HRAS wild-type to KD for KRAS) [2]
1 | CC[C@H](C)[C@@H]1NC(=O)[C@H](CC(C)C)N(C)C(=O)C[C@@H](C(=O)N2CCOCC2)N(C)C(=O)[C@H](C2CCCC2)N(C)C(=O)C2(CCCC2)NC(=O)[C@@H]2CCCN2C(=O)[C@H](CCc2ccc(C(F)(F)F)c(Cl)c2)NC(=O)CN(C)C(=O)[C@H](Cc2ccc(C(F)(F)F)cc2)N(CCC(C)(C)C)C(=O)[C@@H]2CCN2C(=O)[C@H](C)N(C)C1=O [PP0113] ([NMeL]I[NMeA][Aze][X6][Sar][hPhe(3-Cl-4-CF3)]P[Ac5c][NMeGly(cPent)][NMeD]-Morpholide; lactam N-11) | C (A compound having a KD ratio of 0.1 or more and less than 3 is denoted as C) | B (a compound having 3 or more and less than 10 is denoted as B)
2 | C=CCN1C(=O)[C@@H]2CCN2C(=O)[C@H](C)N(C)C(=O)[C@H]([C@@H](C)CC)NC(=O)[C@H](CC(C)C)N(C)C(=O)C[C@@H](C(=O)N2CCOCC2)N(C)C(=O)[C@H](C2CCCC2)N(C)C(=O)C2(CCCC2)NC(=O)[C@@H]2CCCN2C(=O)[C@H](CCc2ccc(C(F)(F)F)c(Cl)c2)NC(=O)CN(C)C(=O)[C@@H]1Cc1ccc(C(F)(F)F)cc1 [PP0114] ([NMeL]I[NMeA][Aze][X11][Sar][hPhe(3-Cl-4-CF3)]P[Ac5c][NMeGly(cPent)][NMeD]-Morpholide; lactam N-11) | C (A compound having a KD ratio of 0.1 or more and less than 3 is denoted as C) | C (A compound having a KD ratio of 0.1 or more and less than 3 is denoted as C)
3 | C=CCCN1C(=O)[C@@H]2CCN2C(=O)[C@H](C)N(C)C(=O)[C@H]([C@@H](C)CC)NC(=O)[C@H](CC(C)C)N(C)C(=O)C[C@@H](C(=O)N2CCOCC2)N(C)C(=O)[C@H](C2CCCC2)N(C)C(=O)C2(CCCC2)NC(=O)[C@@H]2CCCN2C(=O)[C@H](CCc2ccc(C(F)(F)F)c(Cl)c2)NC(=O)CN(C)C(=O)[C@@H]1Cc1ccc(C(F)(F)F)cc1 [PP0115] ([NMeL]I[NMeA][Aze][X18][Sar][hPhe(3-Cl-4-CF3)]P[Ac5c][NMeGly(cPent)][NMeD]-Morpholide; lactam N-11) | C (A compound having a KD ratio of 0.1 or more and less than 3 is denoted as C) | C (A compound having a KD ratio of 0.1 or more and less than 3 is denoted as C)
4 | C#CCN1C(=O)[C@@H]2CCN2C(=O)[C@H](C)N(C)C(=O)[C@H]([C@@H](C)CC)NC(=O)[C@H](CC(C)C)N(C)C(=O)C[C@@H](C(=O)N2CCOCC2)N(C)C(=O)[C@H](C2CCCC2)N(C)C(=O)C2(CCCC2)NC(=O)[C@@H]2CCCN2C(=O)[C@H](CCc2ccc(C(F)(F)F)c(Cl)c2)NC(=O)CN(C)C(=O)[C@@H]1Cc1ccc(C(F)(F)F)cc1 [PP0116] ([NMeL]I[NMeA][Aze][X28][Sar][hPhe(3-Cl-4-CF3)]P[Ac5c][NMeGly(cPent)][NMeD]-Morpholide; lactam N-11) | C (A compound having a KD ratio of 0.1 or more and less than 3 is denoted as C) | C (A compound having a KD ratio of 0.1 or more and less than 3 is denoted as C)
5 | CC[C@H](C)[C@@H]1NC(=O)[C@H](CC(C)C)N(C)C(=O)C[C@@H](C(=O)N2CCOCC2)N(C)C(=O)[C@H](C2CCCC2)N(C)C(=O)C2(CCCC2)NC(=O)[C@@H]2CCCN2C(=O)[C@H](CCc2ccc(C(F)(F)F)c(Cl)c2)NC(=O)CN(C)C(=O)[C@H](Cc2ccc(C(F)(F)F)cc2)N(CCC(F)(F)F)C(=O)[C@@H]2CCN2C(=O)[C@H](C)N(C)C1=O [PP0117] ([NMeL]I[NMeA][Aze][X24][Sar][hPhe(3-Cl-4-CF3)]P[Ac5c][NMeGly(cPent)][NMeD]-Morpholide; lactam N-11) | B (a compound having 3 or more and less than 10 is denoted as B) | B (a compound having 3 or more and less than 10 is denoted as B)
6 | CC[C@H](C)[C@@H]1NC(=O)[C@H](CC(C)C)N(C)C(=O)C[C@@H](C(=O)N2CCOCC2)N(C)C(=O)[C@H](C2CCCC2)N(C)C(=O)C2(CCCC2)NC(=O)[C@@H]2CCCN2C(=O)[C@H](CCc2ccc(C(F)(F)F)c(Cl)c2)NC(=O)CN(C)C(=O)[C@H](Cc2ccc(C(F)(F)F)cc2)N(CCOC)C(=O)[C@@H]2CCN2C(=O)[C@H](C)N(C)C1=O [PP0118] ([NMeL]I[NMeA][Aze][X32][Sar][hPhe(3-Cl-4-CF3)]P[Ac5c][NMeGly(cPent)][NMeD]-Morpholide; lactam N-11) | C (A compound having a KD ratio of 0.1 or more and less than 3 is denoted as C) | C (A compound having a KD ratio of 0.1 or more and less than 3 is denoted as C)
7 | CC[C@H](C)[C@@H]1NC(=O)[C@H](CC(C)C)N(C)C(=O)C[C@@H](C(=O)N2CCOCC2)N(C)C(=O)[C@H](C2CCCC2)N(C)C(=O)C2(CCCC2)NC(=O)[C@@H]2CCCN2C(=O)[C@H](CCc2ccc(C(F)(F)F)c(Cl)c2)NC(=O)CN(C)C(=O)[C@H](Cc2ccc(C(F)(F)F)cc2)N(CCCOC)C(=O)[C@@H]2CCN2C(=O)[C@H](C)N(C)C1=O [PP0119] ([NMeL]I[NMeA][Aze][X42][Sar][hPhe(3-Cl-4-CF3)]P[Ac5c][NMeGly(cPent)][NMeD]-Morpholide; lactam N-11) | C (A compound having a KD ratio of 0.1 or more and less than 3 is denoted as C) | C (A compound having a KD ratio of 0.1 or more and less than 3 is denoted as C)
8 | CCCCN1C(=O)CN(C)C(=O)CN(C)C(=O)[C@H]([C@@H](C)CC)NC(=O)[C@H](CC(C)C)N(C)C(=O)C[C@@H](C(=O)N2CCOCC2)N(C)C(=O)[C@H](C2CCCC2)N(C)C(=O)C2(CCCC2)NC(=O)[C@@H]2CCCN2C(=O)[C@H](CCc2ccc(C(F)(F)F)c(Cl)c2)NC(=O)CN(C)C(=O)[C@@H]1Cc1ccc(C(F)(F)F)cc1 [PP0120] ([NMeL]I[Sar][Sar][X17][Sar][hPhe(3-Cl-4-CF3)]P[Ac5c][NMeGly(cPent)][NMeD]-Morpholide; lactam N-11) | B (a compound having 3 or more and less than 10 is denoted as B) | C (A compound having a KD ratio of 0.1 or more and less than 3 is denoted as C)
9 | CC[C@H](C)[C@@H]1NC(=O)[C@H](CC(C)C)N(C)C(=O)C[C@@H](C(=O)N2CCOCC2)N(C)C(=O)[C@H](C2CCCC2)N(C)C(=O)C2(CCCC2)NC(=O)[C@@H]2CCCN2C(=O)[C@H](CCc2ccc(C(F)(F)F)c(Cl)c2)NC(=O)CN(C)C(=O)[C@H](Cc2ccc(C(F)(F)F)cc2)N(CC(C)C)C(=O)CN(C)C(=O)CN(C)C1=O [PP0121] ([NMeL]I[Sar][Sar][X23][Sar][hPhe(3-Cl-4-CF3)]P[Ac5c][NMeGly(cPent)][NMeD]-Morpholide; lactam N-11) | C (A compound having a KD ratio of 0.1 or more and less than 3 is denoted as C) | C (A compound having a KD ratio of 0.1 or more and less than 3 is denoted as C)
10 | CC[C@H](C)[C@@H]1NC(=O)[C@H](CC(C)C)N(C)C(=O)C[C@@H](C(=O)N2CCOCC2)N(C)C(=O)[C@H](C2CCCC2)N(C)C(=O)C2(CCCC2)NC(=O)[C@@H]2CCCN2C(=O)[C@H](CCc2ccc(C(F)(F)F)c(Cl)c2)NC(=O)CN(C)C(=O)[C@H](Cc2ccc(C(F)(F)F)cc2)N(CC2CC2)C(=O)CN(C)C(=O)CN(C)C1=O [PP0122] ([NMeL]I[Sar][Sar][X31][Sar][hPhe(3-Cl-4-CF3)]P[Ac5c][NMeGly(cPent)][NMeD]-Morpholide; lactam N-11) | C (A compound having a KD ratio of 0.1 or more and less than 3 is denoted as C) | C (A compound having a KD ratio of 0.1 or more and less than 3 is denoted as C)
11 | CC[C@H](C)[C@@H]1NC(=O)[C@H](CC(C)C)N(C)C(=O)C[C@@H](C(=O)N2CCOCC2)N(C)C(=O)[C@H](C2CCCC2)N(C)C(=O)C2(CCCC2)NC(=O)[C@@H]2CCCN2C(=O)[C@H](CCc2ccc(C(F)(F)F)c(Cl)c2)NC(=O)CN(C)C(=O)[C@H](Cc2ccc(C(F)(F)F)cc2)N(CC2CCC2)C(=O)CN(C)C(=O)CN(C)C1=O [PP0123] ([NMeL]I[Sar][Sar][X37][Sar][hPhe(3-Cl-4-CF3)]P[Ac5c][NMeGly(cPent)][NMeD]-Morpholide; lactam N-11) | B (a compound having 3 or more and less than 10 is denoted as B) | C (A compound having a KD ratio of 0.1 or more and less than 3 is denoted as C)
12 | CC[C@H](C)[C@@H]1NC(=O)[C@H](CC(C)C)N(C)C(=O)C[C@@H](C(=O)N2CCOCC2)N(C)C(=O)[C@H](C2CCCC2)N(C)C(=O)C2(CCCC2)NC(=O)[C@@H]2CCCN2C(=O)[C@H](CCc2ccc(C(F)(F)F)c(Cl)c2)NC(=O)CN(C)C(=O)[C@H](Cc2ccc(C(F)(F)F)cc2)N(CC2CCCC2)C(=O)CN(C)C(=O)CN(C)C1=O [PP0124] ([NMeL]I[Sar][Sar][X21][Sar][hPhe(3-Cl-4-CF3)]P[Ac5c][NMeGly(cPent)][NMeD]-Morpholide; lactam N-11) | C (A compound having a KD ratio of 0.1 or more and less than 3 is denoted as C) | C (A compound having a KD ratio of 0.1 or more and less than 3 is denoted as C)
13 | CC[C@H](C)[C@@H]1NC(=O)[C@H](CC(C)C)N(C)C(=O)C[C@@H](C(=O)N2CCOCC2)N(C)C(=O)[C@H](C2CCCC2)N(C)C(=O)C2(CCCC2)NC(=O)[C@@H]2CCCN2C(=O)[C@H](CCc2ccc(C(F)(F)F)c(Cl)c2)NC(=O)CN(C)C(=O)[C@H](Cc2ccc(C(F)(F)F)cc2)N(CCC(C)C)C(=O)CN(C)C(=O)CN(C)C1=O [PP0126] ([NMeL]I[Sar][Sar][X36][Sar][hPhe(3-Cl-4-CF3)]P[Ac5c][NMeGly(cPent)][NMeD]-Morpholide; lactam N-11) | C (A compound having a KD ratio of 0.1 or more and less than 3 is denoted as C) | C (A compound having a KD ratio of 0.1 or more and less than 3 is denoted as C)

Source: US20250230193A1, “CYCLIC COMPOUND HAVING SELECTIVE KRAS INHIBITORY EFFECT ON HRAS AND NRAS” (CHUGAI SEIYAKU KABUSHIKI KAISHA, priority 2022, published 2025)
